Tests used:
[1] = target: recombinant human mPGES-1 (Homo sapiens (Human), UniProt O14684); assay: mPGES-1 enzyme assay (HTRF detection of PGE2); assay type: biochemical; conditions: recombinant human mPGES-1 microsomes, PGH2 2 μM, 60 seconds; read-out: mPGES-1 inhibitory effect IC50 in the enzyme assay
Method: Microsomes from Rosetta E. coli bacteria expressing recombinant human mPGES-1 can be derived as described below:
Inoculate 5 ml LB with Ampicilin (50 μg/ml) and Chloramphenicol (34 μg/ml) with bacteria from freeze culture. Incubate 8 h at 37° C. with 200 rpm. Thereafter, inoculate 500-1000 ml LB containing Amp and Chloro with the 5 ml on culture and grow to OD640 of 0.8-1.0. Chill the culture to +4° C. before induction. Induce the culture with IPTG at a final concentration of 400 μM. Express the protein at room temp 18-23° C. with 200 rpm shaking over night.
The following steps can be performed on the following day: • 1. Spin down the cells in 250 ml centrifuge flasks for 15 min at 7000 rpm (Beckmann Coulte Avanti J-E centrifuge) • 2. Dissolve the pellet from 250 ml culture in 12.5 ml homogenization buffer • 3. (15 mM Tris-HCL pH8, 1 mM EDTA pH8, […], 2.5 mM GSH, 1 Tablet Protease inhibitor per 50 ml buffer) • 4. Disintegrate the cells by sonication, 5×10 seconds at 48% amplitude of a 750 W sonifier • 5. Add 2.5 ml MgCl2 (100 mM) and DNase 12.5 μl (0.8 mg/ml) and incubate on ice for 30 min • 6. Spin down the bacteria debris and save the supernatant, 7000 rpm for 15 min • 7. Isolate the protein containing membranes in the supernatant by ultracentrifugation 120000×g for 2 hour at 4° C. (Sorvall T880 rotor). • 8. Discard the supernatant and dissolve the pellet in 20 mM Potassium phosphate buffer pH7.4 (KH2PO4 and K2HPO4) buffer by sonication (5×10 s, 30% of a 50 W sonifier) and aliquot the enzyme and store aliquots at −80° C.
Before each experiment is performed an aliquot of the enzyme is thawed and it can then be dissolved in 0.1 M Potassium phosphate buffer pH7.4 (KH2PO4 and K2HPO4) buffer containing 2.5 mM GSH.
The aim of this assay is to determine the affinity of a test compound for the mPGES-1 enzyme.
47 μl of recombinant human mPGES-1 (˜0.5 μg protein/well) containing microsomal suspension in a buffer containing GSH, (2.5 mmol/L L-Glutathione reduced, dissolved in 0.1 mol/L Phosphat Buffer pH 7.4) is dispensed in a 384-well plate and thereafter 1 μl of the test compound(s) is/are added and incubated for 25 minutes at room temperature. The enzyme reaction is started by the addition of 2 ul PGH2 (final conc 2 μM) disolved in water-free Diglyme. After 60 seconds the reaction is terminated by addition of a stop solution containing FeCl2 (10 μL 0.074 mol/l FeCl2). The samples are diluted between 1:25 in PBS (Phosphate Buffered Saline). 10 μl of the diluted samples are transferred to 384-well low volume plate. In order to quantify the amount of PGE2 that has been formed, a homogenous time resolved fluorescent (HTRF) detecting of PGE2 has been performed using a commercially available kit from Cisbio according to the manufactures recommendation. This HTRF-based assay has been described in detail (see: Goedken et al., J Biomol Screen, 2008, 13(7), 619-625). Briefly, the diluted samples are mixed with 5 μl PGE2-d2 conjugate and 5 μl anti-PGE2 cryptate conjugate. After an incubation period of the plates over night, the fluorescence is measured by the use of an appropriate microplate reader.
The fluorescence of Europium cryptate (maxex=307 nm, maxem=620 nm) and d2-PGE2 (maxex=620 nm, maxem=665 nm) are measured.
The extent of the specific HTRF is measured as a ratio of the emission intensity at 665 nm vs. that at 620 nm at an excitation puts of 320 nm. The quantification plate contains also wells with different concentrations of PGE2 as calibration curve for the calculation of the PGE2 concentrations from the HTRF ratio values.
From all mPGES enzyme assay the background is subtracted and the IC50 is calculated over a nonlinear regression with conventional software.

mPGES-1 in A549 cells = mPGES-1 in A549 cells (Homo sapiens (Human), UniProt O14684); assay: A549 cell-based assay (PGE2 formation, 50% human serum); conditions: IL-1β 5 ng/ml, 10 nM arachidonic acid, 20-24 h, read-out: mPGES-1 inhibitory effect IC50 in the cell assay
Sequence of mPGES-1 in A549 cells (O14684 whole entry): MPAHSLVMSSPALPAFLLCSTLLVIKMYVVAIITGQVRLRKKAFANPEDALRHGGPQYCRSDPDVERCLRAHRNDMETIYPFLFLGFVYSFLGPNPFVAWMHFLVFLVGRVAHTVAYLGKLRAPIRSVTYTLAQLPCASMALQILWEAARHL
In short: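 PGE2 release, read by HTRF and set to 100% for vehicle, gave IC50s from 6-8 point titrations. Human A549 cells were exposed to compound for 20-24 h in medium with 50% human serum, with IL-1β (5 ng/ml) and arachidonic acid (10 nM) as stimulus.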

Sequence of recombinant human mPGES-1 (O14684 whole entry): as above

Row | Structure (SMILES) | IC50 [1] [nM] | IC50 (mPGES-1 in A549 cells) [nM]
1 | Cn1c(Nc2c(Cl)ccc(CNC(=O)C(C)(C)C)c2Cl)nc2cc(C(=O)Nc3ccc(OC(F)(F)F)cc3)c(N3CC4CC4C3)cc21 (stereo not shown) [Example 64] | 3 | 2.6
2 | Cn1c(Nc2c(Cl)ccc(CNC(=O)C(C)(C)C)c2Cl)nc2cc(C(=O)Nc3ccc(Cl)c(F)c3)c(N3CC4CC4C3)cc21 (stereo not shown) [Example 66] | 3 | 1.6
3 | Cn1c(Nc2c(Cl)ccc(CNC(=O)C(C)(C)C)c2Cl)nc2cc(C(=O)N[C@H]3CC[C@H](C(F)(F)F)CC3)c(N3CCOCC3)cc21 [Example 67] | 4 | 2
4 | Cn1c(Nc2c(Cl)ccc(CNC(=O)C(C)(C)C)c2Cl)nc2cc(C(=O)NCC(F)(F)C(F)(F)F)c(N3CCOCC3)cc21 [Example 68] | 4 | 1
5 | Cn1c(Nc2c(Cl)ccc(CNC(=O)C(C)(C)C)c2Cl)nc2cc(C(=O)N[C@H]3CC[C@H](C(F)(F)F)CC3)c(N3CCC(F)(F)CC3)cc21 [Example 69] | 2 | 1
6 | CC(C)(C)C(=O)NCc1ccc(Cl)c(Nc2nc3cc(C(=O)NCC(F)(F)C(F)(F)F)c(N4CCOCC4)cc3n2CC(F)F)c1Cl [Example 72] | 4 | 4
7 | CC(C)(C)C(=O)NCc1ccc(Cl)c(Nc2nc3cc(C(=O)NCC(F)(F)C(F)(F)F)c(N4CCC(F)(F)CC4)cc3n2CC(F)F)c1Cl [Example 74] | 3 | 4
8 | CC(C)(C)C(=O)NCc1ccc(Cl)c(Nc2nc3cc(C(=O)N[C@H]4CC[C@H](C(F)(F)F)CC4)c(N4CC[C@@H](F)C4)cc3n2CC(F)F)c1Cl [Example 79] | 3 | 1
9 | Cn1c(Nc2c(Cl)ccc(CNC(=O)C(C)(C)C)c2Cl)nc2cc(C(=O)NCCC(F)(F)F)c(N3CCCC(C(F)(F)F)C3)cc21 (stereo not shown) [Example 81, N-(3,3,3-Trifluoropropyl)-2-{2,6-dichloro-3-[(2,2-dimethyl-propionylamino)-methyl]-phenylamino}-6-[3-trifluoromethyl-piperidinyl]-1-methyl-1H-benzimidazole-5-carboxylic acid amide] | 4 | < 1
10 | Cn1c(Nc2c(Cl)ccc(CNC(=O)C(C)(C)C)c2Cl)nc2cc(C(=O)N[C@H]3CC[C@H](C(F)(F)F)CC3)c(N3CCC(O)(C(F)(F)F)CC3)cc21 [Example 82] | 3 | 1
11 | Cn1c(Nc2c(Cl)ccc(CNC(=O)C(C)(C)C)c2Cl)nc2cc(C(=O)N[C@H]3CC[C@H](C(F)(F)F)CC3)c(N3CCC(O)C3)cc21 (stereo partly shown) [Example 84] | 3 | 16
12 | Cn1c(Nc2c(Cl)ccc(CNC(=O)C(C)(C)C)c2Cl)nc2cc(C(=O)N[C@H]3CC[C@H](C(F)(F)F)CC3)c(NCCCO)cc21 [Example 85] | 15 | 86
13 | Cn1c(Nc2c(Cl)ccc(CNC(=O)C(C)(C)C)c2Cl)nc2cc(C(=O)N[C@H]3CC[C@H](C(F)(F)F)CC3)c(N3CC(C)(O)C3)cc21 [Example 86] | 4 | 5
14 | CN(c1cc2c(cc1C(=O)N[C@H]1CC[C@H](C(F)(F)F)CC1)nc(Nc1c(Cl)ccc(CNC(=O)C(C)(C)C)c1Cl)n2C)C1CCC1 [Example 91] | 4 | < 1
15 | Cn1c(Nc2c(Cl)ccc(CNC(=O)C(C)(C)C)c2Cl)nc2cc(C(=O)N[C@H]3CC[C@H](C(F)(F)F)CC3)c(N3CC4(COC4)C3)cc21 [Example 93] | 3 | 17
16 | Cn1c(Nc2c(Cl)ccc(CNC(=O)C(C)(C)C)c2Cl)nc2cc(C(=O)N[C@H]3CC[C@H](C(F)(F)F)CC3)c(N3CC4(CCC4)C3)cc21 [Example 94] | 4 | 6

Continued by falling IC50 [1], values first:

Row | IC50 [1] [nM] | IC50 (mPGES-1 in A549 cells) [nM] | Structure (SMILES)
17 | 3 | 6 | Cn1c(Nc2c(Cl)ccc(CNC(=O)C(C)(C)C)c2Cl)nc2cc(C(=O)N[C@H]3CC[C@@H](C(F)(F)F)CC3)c(N3CC4CC4C3)cc21 (stereo partly shown) [Example 63]
18 | 2 | < 1 | Cn1c(Nc2c(Cl)ccc(CNC(=O)C(C)(C)C)c2Cl)nc2cc(C(=O)N[C@H]3CC[C@@H](C(F)(F)F)CC3)c(N3CCC(C(F)(F)F)CC3)cc21 [Example 61]
19 | 2 | < 1 | Cn1c(Nc2c(Cl)ccc(CNC(=O)C(C)(C)C)c2Cl)nc2cc(C(=O)NCCC(F)(F)F)c(N3CCC(C(F)(F)F)CC3)cc21 [Example 62]
20 | 2 | 2 | Cn1c(Nc2c(Cl)ccc(CNC(=O)C(C)(C)C)c2Cl)nc2cc(C(=O)NCC(F)(F)C(F)(F)F)c(N3CCC(F)(F)CC3)cc21 [Example 70]
21 | 2 | < 1 | CC1(O)CCN(c2cc3c(cc2C(=O)N[C@H]2CC[C@H](C(F)(F)F)CC2)nc(Nc2c(Cl)ccc(CNC(=O)C(C)(C)F)c2Cl)n3CC(F)F)CC1 [Example 78]
22 | 2 | 1 | CC(C)(F)C(=O)NCc1ccc(Cl)c(Nc2nc3cc(C(=O)N[C@H]4CC[C@H](C(F)(F)F)CC4)c(N4CCC(O)(C(F)(F)F)CC4)cc3n2CC(F)F)c1Cl [Example 80]
23 | 2 | 1.4 | Cn1c(Nc2c(Cl)ccc(CNC(=O)C(C)(C)C)c2Cl)nc2cc(C(=O)N[C@H]3CC[C@H](C(F)(F)F)CC3)c(N3CCC(C)(O)C3)cc21 (stereo partly shown) [Example 83]
24 | 2 | 8 | Cn1c(Nc2c(Cl)ccc(CNC(=O)C(C)(C)C)c2Cl)nc2cc(C(=O)N[C@H]3CC[C@H](C(F)(F)F)CC3)c(N3CC(O)C3)cc21 [Example 87]
25 | 2 | 1.5 | CN(Cc1nccn1C)c1cc2c(cc1C(=O)N[C@H]1CC[C@H](C(F)(F)F)CC1)nc(Nc1c(Cl)ccc(CNC(=O)C(C)(C)C)c1Cl)n2C [Example 88]
26 | 2 | 1 | Cn1c(Nc2c(Cl)ccc(CNC(=O)C(C)(C)C)c2Cl)nc2cc(C(=O)N[C@H]3CC[C@H](C(F)(F)F)CC3)c(N3CCCC(C(F)(F)F)C3)cc21 (stereo partly shown) [Example 89]
27 | 2 | 1.4 | Cn1c(Nc2c(Cl)ccc(CNC(=O)C(C)(C)C)c2Cl)nc2cc(C(=O)N[C@H]3CC[C@H](C(F)(F)F)CC3)c(N3C4CCC3CC4)cc21 [Example 92]
28 | 2 | 7 | Cn1c(Nc2c(Cl)ccc(CNC(=O)C(C)(C)C)c2Cl)nc2cc(C(=O)N[C@H]3CC[C@H](C(F)(F)F)CC3)c(N3CC4CCCC43)cc21 (stereo partly shown) [Example 95]
29 | 1 | 1 | Cn1c(Nc2c(Cl)ccc(CNC(=O)C(C)(C)C)c2Cl)nc2cc(C(=O)NC3CCC(F)(F)CC3)c(N3CCC(C(F)(F)F)CC3)cc21 [Example 60]
30 | 1 | 1 | Cn1c(Nc2c(Cl)ccc(CNC(=O)C(C)(C)C)c2Cl)nc2cc(C(=O)Nc3ccc(F)c(Cl)c3)c(N3CC4CC4C3)cc21 (stereo not shown) [Example 65]
31 | 1 | 2 | CC(C)(C)C(=O)NCc1ccc(Cl)c(Nc2nc3cc(C(=O)N[C@H]4CC[C@H](C(F)(F)F)CC4)c(N4CCC(C(F)(F)F)CC4)cc3n2CC(F)F)c1Cl [Example 75]
32 | 1 | 1 | CC(C)(C)C(=O)NCc1ccc(Cl)c(Nc2nc3cc(C(=O)NCC(F)(F)C(F)(F)F)c(N4CCC(C(F)(F)F)CC4)cc3n2CC(F)F)c1Cl [Example 76]

Reference: patent US8674113B2, “Compounds” (Boehringer Ingelheim International GmbH, priority 2010, dated 2014)
